From patent US20250170224A1, “METHODS AND COMPOSITIONS FOR TREATING MICROGLIAL DYSFUNCTION AND IMPROVING METABOLIC DYSFUNCTION” (Ultimate Medicine AG, priority 2021, published 2025) come the findings set out here.

The subject of this experiment is microglia. The experiment in a line: CML given intraperitoneally or by oral gavage to young-adult and aged SPF mice; microglia analysed. The experiment is classed as in vivo, mouse. The method, then:
Specific pathogen-free (SPF) and germ-free (GF) housed C57BL/6 mice were analyzed at 6-10 weeks of age (young-adult) and 96-104 weeks of age (aged). Mice of the aged group in the nontargeted metabolomics analysis were 17-18 months old. Except for nontargeted metabolomics and microbiota profiling, where only male mice were used, all groups included mice from both sexes. Mice were housed under a 12-hour light/12-hour dark cycle and temperatures of 18-23° C. with 40-60% humidity, with food and water given ad libitum. To avoid cage effects, mice from at least three different cages per experimental group were analyzed. […] For modulation of CML in aged animals, 18-month-old SPF housed C57BL/6 mice were treated orally every third day for 10 weeks with vehicle (20% hydroxypropyl-p-cyclodextrin in 1× phosphate-buffered saline (PBS)), 10 mg kg^−1 ellagic acid (EA) or 3,000 U kg^−1 intestinal alkaline phosphatase (IAP). To assess in vivo intestinal permeability, tracer fluorescein isothiocyanate (FITC)-labeled dextran (4 kDa: Sigma-Aldrich) was used. Briefly, mice were deprived of food 4 hours before and both food and water 4 hours after oral gavage using 200 μl of 80 mg ml^−1 FITC-dextran. Blood was collected retro-orbitally after 4 hours and fluorescence intensity was measured on fluorescence plates using an excitation wavelength of 493 nm and an emission wavelength of 518 nm. To assess in vivo intestinal permeability to CML, mice were treated with […] CML (0.36 mM). Blood was collected retro-orbitally immediately before and 4 hours after treatment. CML translocated into the circulation was measured by liquid chromatography-mass spectrometry (LC-MS). All animal experiments were approved by the local administration in Germany (Regierungsprasidium Freiburg) and were performed in accordance with the respective national, federal, and institutional regulations and the guidelines of the Federation of European Laboratory Animal Science Associations.
Brains were fixed in 4% PFA, dehydrated in 30% sucrose and embedded in Tissue-Tek OCT compound (Sakura Finetek). Fourteen micrometer-thick cryosections were obtained using a cryostat (SM2000R; Leica Biosystems). FFPE tissue from mouse and human brains was sectioned by a microtome to obtain 5-pm sections. Epitopes were unmasked by heat-induced antigen retrieval at pH 6. Sections were blocked with PBS containing 5% bovine serum albumin (BSA) and permeabilized with 0.5% Triton X-100 in blocking solution. The following primary antibodies were incubated overnight at 4° C.: rabbit anti-Iba-1 (1:500 dilution; WAKO); guinea pig anti-Iba-1 (1:1,000 dilution; Synaptic Systems); anti-iNOS (1:500 dilution; Thermo Fisher Scientific) or anti-CML (1:500; Abcam). Secondary antibodies (Alexa Fluor 488-, 568- or 647-conjugated, 1:500 dilution) were incubated for 2 hours at room temperature. For three dimensional (3D)-reconstruction of microglia, free-floating 30-pm cryosections from brain tissue were labeled for 48 hours with anti-Iba-1 (1:500 dilution) at 4° C., followed by Alexa Fluor 647-conjugated secondary antibody at a dilution of 1:500 overnight at 4° C. […] For 3D-reconstruction of microglia, images were analyzed using Imaris v.8.02 (Bitplane) with at least five cells per mouse. All other images were processed and analyzed with Photoshop CC 2015 (Adobe) or ImageJ v.1.53f (National Institutes of Health). […]

The mark [1] stands for this setting: aged mice, both intraperitoneal and oral gavage routes.

As to `N[C@@H](CCCCNCC(=O)O)C(=O)O` [CML, N^6-carboxymethyllysine], under setting [1], the “cellular ROS in microglia” value was “significantly exacerbated the age-related increase in cellular ROS” and the “metabolic function (cellular ATP) in microglia” value is “diminished metabolic function”. The “effect of route of CML administration on percentage of CML+ microglia” value (aged mice, i.p. versus oral gavage) was “no effect”. For the same compound, for the setting “young-adult mice”, the “CML+ microglia in the cortex, intraperitoneal rather than oral gavage” value was “more CML^+ microglia in the cortex”. For the same compound, where the note is “young-adult mice, i.p. versus oral gavage”, the “effect on cellular ROS and metabolic function in microglia” value is recorded as “only detectable after intraperitoneal administration”.
